Laboratory results as given in ChEMBL document CHEMBL1201862, “PubChem BioAssay data set” (2004).
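Compound exposure: 48 hours, 5 concentrations, 96-well plates. GI50 is the concentration that inhibits growth by half.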 Calls of active or inactive are those of the source. Cut-off read from the data, not from the text of the source: active = GI50 up to about 1.1 µM and inactive = higher.

Legend:
Assay in all cases: NCI tumour cell line growth inhibition, 48 h
DU-145 = tested on: DU-145
HCT-15 = tested on: HCT-15
HL-60 = tested on: HL-60
KM12 = tested on: KM12
M14 = tested on: M14
MDA-MB-231 = tested on: MDA-MB-231
MOLT-4 = tested on: MOLT-4
NCI-H23 = tested on: NCI-H23
NCI-H522 = tested on: NCI-H522
OVCAR-3 = tested on: OVCAR-3
OVCAR-4 = tested on: OVCAR-4
OVCAR-5 = tested on: OVCAR-5
RXF 393 = tested on: RXF 393
SF-268 = tested on: SF-268
SF-539 = tested on: SF-539
SK-MEL-5 = tested on: SK-MEL-5
SR = tested on: SR
SW-620 = tested on: SW-620
U-251 = tested on: U-251
UACC-257 = tested on: UACC-257

CCc1cc2c(cc1CCCC(=O)O)CC1(Cc3ccc(C(=O)O)cc3C1)C2 (stereo not given)
GI50 (DU-145): > 100 µM (inactive) | GI50 (HCT-15): > 100 µM | GI50 (HL-60): > 100 µM (inactive) | GI50 (KM12): > 100 µM (inactive) | GI50 (M14): > 100 µM (inactive) | GI50 (MDA-MB-231): > 100 µM (inactive) | GI50 (MOLT-4): > 100 µM (inactive) | GI50 (NCI-H23): > 100 µM (inactive) | GI50 (NCI-H522): > 100 µM (inactive) | GI50 (OVCAR-3): > 100 µM (inactive) | GI50 (OVCAR-4): > 100 µM (inactive) | GI50 (OVCAR-5): > 100 µM (inactive) | GI50 (RXF 393): > 100 µM (inactive) | GI50 (SF-268): > 100 µM (inactive) | GI50 (SF-539): > 100 µM (inactive) | GI50 (SK-MEL-5): > 100 µM (inactive) | GI50 (SR): > 100 µM (inactive) | GI50 (SW-620): > 100 µM (inactive) | GI50 (U-251): > 100 µM (inactive) | GI50 (UACC-257): > 100 µM (inactive)

O=C1OCC2(CO1)CC1C=CC2C1 (stereo not given)
GI50 (DU-145): > 100 µM (inactive) | GI50 (HCT-15): > 100 µM | GI50 (HL-60): > 100 µM (inactive) | GI50 (KM12): > 100 µM (inactive) | GI50 (M14): > 100 µM (inactive) | GI50 (MDA-MB-231): > 100 µM (inactive) | GI50 (MOLT-4): > 100 µM (inactive) | GI50 (NCI-H23): > 100 µM (inactive) | GI50 (NCI-H522): > 100 µM (inactive) | GI50 (OVCAR-3): > 100 µM (inactive) | GI50 (OVCAR-4): > 100 µM (inactive) | GI50 (OVCAR-5): > 100 µM (inactive) | GI50 (RXF 393): > 100 µM (inactive) | GI50 (SF-268): > 100 µM (inactive) | GI50 (SF-539): > 100 µM (inactive) | GI50 (SK-MEL-5): > 100 µM (inactive) | GI50 (SR): > 100 µM (inactive) | GI50 (SW-620): > 100 µM (inactive) | GI50 (U-251): > 100 µM (inactive) | GI50 (UACC-257): > 100 µM (inactive)

N#C/C(=C\Nc1ccccn1)C(=O)c1ccco1
GI50 (DU-145): > 100 µM (inactive) | GI50 (HCT-15): > 100 µM | GI50 (HL-60): > 100 µM (inactive) | GI50 (KM12): > 100 µM (inactive) | GI50 (M14): > 100 µM (inactive) | GI50 (MDA-MB-231): > 100 µM (inactive) | GI50 (MOLT-4): 39.6 µM (inactive) | GI50 (NCI-H23): > 100 µM (inactive) | GI50 (NCI-H522): > 100 µM (inactive) | GI50 (OVCAR-3): > 100 µM (inactive) | GI50 (OVCAR-4): > 100 µM (inactive) | GI50 (OVCAR-5): > 100 µM (inactive) | GI50 (RXF 393): > 100 µM (inactive) | GI50 (SF-268): > 100 µM (inactive) | GI50 (SF-539): > 100 µM (inactive) | GI50 (SK-MEL-5): > 100 µM (inactive) | GI50 (SR): > 100 µM (inactive) | GI50 (SW-620): > 100 µM (inactive) | GI50 (U-251): > 100 µM (inactive) | GI50 (UACC-257): > 100 µM (inactive)

NC(=O)N/N=C(/CC1C(=O)Oc2ccccc21)c1ccccc1O (stereo not given)
GI50 (DU-145): 50.1 µM (inactive) | GI50 (HCT-15): 38.4 µM | GI50 (HL-60): 19.6 µM (inactive) | GI50 (KM12): 31.9 µM (inactive) | GI50 (M14): > 100 µM (inactive) | GI50 (MDA-MB-231): > 100 µM (inactive) | GI50 (MOLT-4): 20.2 µM (inactive) | GI50 (NCI-H23): 31.5 µM (inactive) | GI50 (NCI-H522): > 100 µM (inactive) | GI50 (OVCAR-3): 78.2 µM (inactive) | GI50 (OVCAR-4): 41.7 µM (inactive) | GI50 (OVCAR-5): > 100 µM (inactive) | GI50 (RXF 393): 29.6 µM (inactive) | GI50 (SF-268): > 100 µM (inactive) | GI50 (SF-539): 25.6 µM (inactive) | GI50 (SK-MEL-5): 58.6 µM (inactive) | GI50 (SR): 18.9 µM (inactive) | GI50 (SW-620): 45.7 µM (inactive) | GI50 (U-251): 30.1 µM (inactive) | GI50 (UACC-257): 44.7 µM (inactive)

CCOCC(=O)N[C@H]1CCc2cc(OC)c(OC)c(OC)c2-c2ccc(OC)c(=O)cc21
GI50 (DU-145): 0.0213 µM (active) | GI50 (HCT-15): 0.0865 µM | GI50 (HL-60): < 0.01 µM (active) | GI50 (KM12): 0.0129 µM (active) | GI50 (M14): 0.0179 µM (active) | GI50 (MDA-MB-231): < 0.0145 µM (active) | GI50 (MOLT-4): 0.0231 µM (active) | GI50 (NCI-H23): 0.0132 µM (active) | GI50 (NCI-H522): 0.0143 µM (active) | GI50 (OVCAR-3): 0.0148 µM (active) | GI50 (OVCAR-4): 3.62 µM (inactive) | GI50 (OVCAR-5): 0.741 µM (active) | GI50 (RXF 393): 0.0811 µM (active) | GI50 (SF-268): 0.0233 µM (active) | GI50 (SF-539): 0.0148 µM (active) | GI50 (SK-MEL-5): 0.0133 µM (active) | GI50 (SR): < 0.0206 µM (active) | GI50 (SW-620): 0.0169 µM (active) | GI50 (U-251): 0.0173 µM (active) | GI50 (UACC-257): 0.0377 µM (active)

COc1ccc(C(OCC2OC(n3cc(C)c(=O)[nH]c3=O)CC2n2cc(Cn3cc(Cl)c(=O)[nH]c3=O)nn2)(c2ccccc2)c2ccccc2)cc1 (stereo not given)
GI50 (DU-145): > 100 µM (inactive) | GI50 (HCT-15): > 100 µM | GI50 (HL-60): 3 µM (inactive) | GI50 (KM12): > 100 µM (inactive) | GI50 (M14): > 100 µM (inactive) | GI50 (MDA-MB-231): 27.6 µM (inactive) | GI50 (MOLT-4): 4.7 µM (inactive) | GI50 (NCI-H23): > 100 µM (inactive) | GI50 (NCI-H522): > 100 µM (inactive) | GI50 (OVCAR-3): > 100 µM (inactive) | GI50 (OVCAR-4): > 100 µM (inactive) | GI50 (OVCAR-5): > 100 µM (inactive) | GI50 (RXF 393): > 100 µM (inactive) | GI50 (SF-268): > 100 µM (inactive) | GI50 (SF-539): > 100 µM (inactive) | GI50 (SK-MEL-5): > 100 µM (inactive) | GI50 (SR): 4.02 µM (inactive) | GI50 (SW-620): > 100 µM (inactive) | GI50 (U-251): 24.8 µM (inactive) | GI50 (UACC-257): > 100 µM (inactive)

CC(C)C1CC[C@H](C)C[C@@H]1OC(=O)C(C(=O)O[C@H]1C[C@@H](C)CCC1C(C)C)C(O)[C@@H]1OC(C)(C)O[C@H]1C1COC(C)(C)O1 (stereo not given in full)
GI50 (DU-145): 18.8 µM (inactive) | GI50 (HCT-15): 20.7 µM | GI50 (HL-60): 16.7 µM (inactive) | GI50 (KM12): 16.6 µM (inactive) | GI50 (M14): 19 µM (inactive) | GI50 (MDA-MB-231): 17 µM (inactive) | GI50 (MOLT-4): 10.7 µM (inactive) | GI50 (NCI-H23): 13.4 µM (inactive) | GI50 (NCI-H522): 1.58 µM (inactive) | GI50 (OVCAR-3): 19.9 µM (inactive) | GI50 (OVCAR-4): 26 µM (inactive) | GI50 (OVCAR-5): 17.3 µM (inactive) | GI50 (RXF 393): 14.7 µM (inactive) | GI50 (SF-268): 19.9 µM (inactive) | GI50 (SF-539): 26.8 µM (inactive) | GI50 (SK-MEL-5): 15.8 µM (inactive) | GI50 (SR): 9.62 µM (inactive) | GI50 (SW-620): 14.2 µM (inactive) | GI50 (U-251): 14.2 µM (inactive) | GI50 (UACC-257): 24.6 µM (inactive)

CC(C)CC(=O)OC[n+]1ccc(-c2c(COC(=O)NC(C)C)c(COC(=O)NC(C)C)c3n2CCC3)cc1
GI50 (DU-145): > 100 µM (inactive) | GI50 (HCT-15): > 100 µM | GI50 (HL-60): 65.8 µM (inactive) | GI50 (KM12): > 100 µM (inactive) | GI50 (M14): > 100 µM (inactive) | GI50 (MDA-MB-231): > 100 µM (inactive) | GI50 (MOLT-4): 32.3 µM (inactive) | GI50 (NCI-H23): 75.2 µM (inactive) | GI50 (NCI-H522): > 100 µM (inactive) | GI50 (OVCAR-3): > 100 µM (inactive) | GI50 (OVCAR-4): > 100 µM (inactive) | GI50 (OVCAR-5): > 100 µM (inactive) | GI50 (RXF 393): > 100 µM (inactive) | GI50 (SF-268): > 100 µM (inactive) | GI50 (SF-539): 27.6 µM (inactive) | GI50 (SK-MEL-5): > 100 µM (inactive) | GI50 (SR): 6.19 µM (inactive) | GI50 (SW-620): > 100 µM (inactive) | GI50 (U-251): > 100 µM (inactive) | GI50 (UACC-257): > 100 µM (inactive)

CC1CC2CCCC(=O)C2=C(O)O1 (stereo not given)
GI50 (DU-145): > 100 µM (inactive) | GI50 (HCT-15): > 100 µM | GI50 (HL-60): > 100 µM (inactive) | GI50 (KM12): > 100 µM (inactive) | GI50 (M14): > 100 µM (inactive) | GI50 (MDA-MB-231): > 100 µM (inactive) | GI50 (MOLT-4): > 100 µM (inactive) | GI50 (NCI-H23): > 100 µM (inactive) | GI50 (NCI-H522): > 100 µM (inactive) | GI50 (OVCAR-3): > 100 µM (inactive) | GI50 (OVCAR-4): > 100 µM (inactive) | GI50 (OVCAR-5): > 100 µM (inactive) | GI50 (RXF 393): > 100 µM (inactive) | GI50 (SF-268): > 100 µM (inactive) | GI50 (SF-539): > 100 µM (inactive) | GI50 (SK-MEL-5): > 100 µM (inactive) | GI50 (SR): > 100 µM (inactive) | GI50 (SW-620): > 100 µM (inactive) | GI50 (U-251): > 100 µM (inactive) | GI50 (UACC-257): > 100 µM (inactive)
